Measurements taken from patent US20130041005A1, “PHARMACEUTICAL COMPOSITIONS COMPRISING NEUROPILIN INHIBITORS, AND THEIR USE FOR THE PREVENTION AND/OR TREATMENT OF ANGIOGENIC DISORDERS AND CANCERS” (TRAGEX PHARMA, priority 2011, published 2013).
Entries after “also recorded” stand apart in the source; their conditions may differ.

Assays:
MDA-MB-231 cells = assay: In vivo MDA-MB-231 tumor study in NOD-SCID mice; conditions: for tumor size: oral gavage (FIG. 8B); for percentage of survival at day 35: oral gavage (FIG. 8C)
Description: Female (NOD-SCID) mice 5-6 weeks old were injected subcutaneously with MDA-MB-231 cells (5.10^6) at a single site on their right flanks. Tumors were allowed to grow (19 days) to less than […] before being pair-matched by tumor size into treatment groups (8 mice/group). One group was treated with vehicles (8 mice/group receiving cremofor 12.5%/ethanol 12.5%/H2O), one group was treated with 10 mg/kg of the compound 1 of the invention (8 mice/group receiving compound 1+cremofor 12.5%/ethanol 12.5%/H2O), one group was treated with 50 mg/kg of the compound 1 of the invention ([…] receiving compound 1+cremofor 12.5%/ethanol 12.5%/H2O). All groups received daily by oral gavages for 5 consecutive days/weeks approximately 100 μL of a solution containing the compound 1 of the invention. Mice were weighed regularly to assess toxicity of the treatments and the tumors were measured with calipers (width×width×length×Pi/6) to determine tumor growth. Mice survival was assessed during the study and metastatic development was investigated in lung, spleen and liver.

RAJI = assay: WST-1 proliferation assay, RAJI; type: cell-based; conditions: Homo sapiens; Burkitt's lymphoma RAJI; read-out: Anti-proliferative activity IC50 (μM) ± SD
Description: All the cancer cell lines were maintained in cultured in DMEM GlutaMAX™ (GIBCO Invitrogen, France, cat no 31966047) enhanced with 10% foetal bovine serum (GIBCO Invitrogen, France, cat no 10270-106) and 1% penicillin G/streptomycin (GIBCO Invitrogen, France, cat no 15140-122). Only Panc-10.5 cells were cultivated in RPMI 1640 medium (Gibco) supplemented with 2 mM L-glutamine, 1.5 g/L sodium bicarbonate, 4.5 g/L glucose, 10 mM HEPES, 1 mM sodium pyruvate, 10 Units/ml human insulin, […] (SVF): 15% (75 ml in 500 ml of medium).
Cells were grown as subconfluent monolayer and cultured in 75 cm^2 flasks at 37° C., 5% CO2 in a humidified atmosphere, and medium was changed every two days. […]
The cell proliferation WST-1 assay is a colorimetric assay for the quantification of cell proliferation and viability, based on the enzymatic cleavage of the tetrazolium salt WST-1 added to the culture medium, to a water soluble colored formazan dye, detected by absorbance at 450 nm, by mitochondrial succinate-tetrazolium reductase in viable cells. […]
After an incubation period of 72 h, at day 4, were prepared the 19 ml medium with reagent WST-1 1 ml ([…]). […] The cells were incubated at 37° C. in a humidified atmosphere of 5% CO2 for 1 h 30 and the absorbance at 450-655 nm was measured by Microplate Manager 5.2 (Bio-Rad).

HeLa = assay: WST-1 proliferation assay, HeLa; type: cell-based; conditions: Homo sapiens
MDA-MB-231 = assay: WST-1 proliferation assay, MDA-MB-231; type: cell-based, Human; conditions: for IC50: Homo sapiens, Breast MDA-MB-231, 72 h, read-out: Anti-proliferative activity IC50 (μM) ± SD; for effect on anti-proliferative effect of 5-FU: MDA-MB-231, combination with 5-FU, 72 hours (FIG. 7); for cytotoxicity for cancer cells in vitro: MDAMB-231 cell survival, FIGS. 1A-C
Description: Cells were grown as subconfluent monolayer and cultured in 75 cm^2 flasks at 37° C., 5% CO2 in a humidified atmosphere, and medium was changed every two days. Only cells from passages 2-6 were used for the experiments.
All cells were detached with 3 ml of trypsin/EDTA (chelator of calcium and magnesium ions) (Lonza), incubated for 5 min at 37° C., and examined using a microscope to ensure that the cells were detached and floating. […] The supernatant was removed and the cell pellet resuspended in […] of culture medium. 50 μl of this solution were transferred in 20 μl of isotonic solution and the cells were counted by count cellular (Beckman Coulter).
The cell proliferation WST-1 assay is a colorimetric assay for the quantification of cell proliferation and viability, based on the enzymatic cleavage of the tetrazolium salt WST-1 added to the culture medium, to a water soluble colored formazan dye, detected by absorbance at 450 nm, by mitochondrial succinate-tetrazolium reductase in viable cells. An augmentation in enzyme activity will then lead to an increase in the amount of formazan dye formed, which directly correlates to the number of metabolically active cells in the culture.
After an incubation period of 72 h, at day 4, were prepared the […] medium with reagent WST-1 […] ([…]). The medium was removed from the 96 microplate and 200 μl of solution WST-1/medium were added for each well. The cells were incubated at 37° C. in a humidified atmosphere of 5% CO2 for 1 h 30 and the absorbance at 450-655 nm was measured by Microplate Manager 5.2 (Bio-Rad).

[1] = tested on: breast cancer cells (MDA-MB-231); assay: Apoptosis assay (Annexin V-FITC/PI), MDA-MB-231; type: cell-based, Human; conditions: IC50 concentration, 72 h (FIG. 5B)
Description: The level of apoptosis in endothelial (HUVEC) and breast cancer cells (MDA-MB-231) was detected by Annexin V-FITC Apoptosis Detection Kit (ref 556547, BD Biosciences, France) according to the manufacturer's instructions. Briefly, HUVEC and MDA-MB-231 cells were treated separately with DMSO (control) and the compounds of the invention at the concentration corresponding to the IC50, obtained by the proliferation assay, for 72 h. After treatment, all cell including both detached and attached cells were collected, centrifugated at 14000 rpm for 5 min and the apoptotic cells were detected by staining with Annexin V-FITC and (propidium iodide) PI. The cells were resuspended in 100 μl Annexin V binding buffer (10 mM Hepes/NaOH, pH 7.4, 140 mM NaCl, […]) containing 5 μl of Annexin V-FITC and 5 μl of PI (propidium iodide). Samples were gently mixed and incubated for 2 h on ice and in the dark. Viable and apoptotic cell were detected by flow citometry (FACS Calibur Becton Dickinson, France). Apoptotic cells include both the early apoptotic portion (Annexin V-positive) and the late apoptotic portion (Annexin V- and PI-positive). Staurosporine is used as a positive control of apoptosis induction.

Row | Structure (SMILES) | tumor size (MDA-MB-231 cells; 10 mg/kg) | percentage of survival at day 35 (MDA-MB-231 cells; 10 mg/kg) | tumor size (MDA-MB-231 cells; 50 mg/kg) | percentage of survival at day 35 (MDA-MB-231 cells; 50 mg/kg) | IC50 (RAJI) | inhibition at 0.05 µM (HeLa) | IC50 (MDA-MB-231) | effect on anti-proliferative effect of 5-FU (MDA-MB-231) | cytotoxicity for cancer cells in vitro (MDA-MB-231) | induction of apoptosis in cancer cells [1]
1 | Cc1ccc(-c2nc3ccccc3[nH]2)cc1NC(=S)NC(=O)c1ccc2c(c1)OCCO2 [Compound 1, N-[5-(1H-benzimidazol-2-yl)-2-methylphenyl]-N′-(2,3-dihydro-1,4-benzodioxin-6-ylcarbonyl)thiourea] | tumor size was smaller | about 70% | tumor size was smaller | 100% | 1.5 ± 0.01 µM | 4% | 0.6 ± 0.03 µM | increase the anti-proliferative effect of 5-FU | cytotoxic | induced the apoptosis; also recorded: induction of apoptosis
2 | O=C(NC(=S)Nc1cccc(-c2nc3ccccc3[nH]2)c1)c1ccc2c(c1)OCCO2 [Compound 2, N-[3-(1H-benzimidazol-2-yl)phenyl]-N′-(2,3-dihydro-1,4-benzodioxin-6-ylcarbonyl)thiourea] |  |  |  |  | 1.3 ± 0.04 µM | 49% | 0.4 ± 0.02 µM | increase the anti-proliferative effect of 5-FU | cytotoxic | induced the apoptosis; also recorded: induction of apoptosis
